In the test the target is T1, Fibroblast Activation Protein Alpha (FAP) (Homo sapiens, UniProt Q12884).
T1 sequence (Q12884 27-760 limits assumed): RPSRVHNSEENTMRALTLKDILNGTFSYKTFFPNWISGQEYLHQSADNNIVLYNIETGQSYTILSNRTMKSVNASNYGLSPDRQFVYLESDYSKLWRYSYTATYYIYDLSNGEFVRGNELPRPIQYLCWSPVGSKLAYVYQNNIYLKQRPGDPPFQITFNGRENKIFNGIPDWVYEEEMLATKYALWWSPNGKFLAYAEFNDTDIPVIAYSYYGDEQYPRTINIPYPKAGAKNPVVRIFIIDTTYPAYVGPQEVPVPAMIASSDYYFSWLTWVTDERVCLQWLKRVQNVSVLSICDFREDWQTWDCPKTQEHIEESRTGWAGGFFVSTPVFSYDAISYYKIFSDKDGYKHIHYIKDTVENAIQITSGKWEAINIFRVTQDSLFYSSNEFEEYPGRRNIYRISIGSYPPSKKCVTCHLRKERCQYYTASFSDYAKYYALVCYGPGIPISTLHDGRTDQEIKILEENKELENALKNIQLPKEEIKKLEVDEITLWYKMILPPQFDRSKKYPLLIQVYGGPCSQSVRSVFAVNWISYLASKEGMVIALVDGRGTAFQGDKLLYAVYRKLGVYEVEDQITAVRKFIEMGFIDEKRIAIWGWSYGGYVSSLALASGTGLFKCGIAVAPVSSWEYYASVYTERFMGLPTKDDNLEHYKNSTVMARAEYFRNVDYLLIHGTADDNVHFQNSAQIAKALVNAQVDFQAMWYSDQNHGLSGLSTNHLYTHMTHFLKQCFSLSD
Description: FAP substrate kinetics assay with naïve substrate library. Type of test: biochemical. The following applies: from the observed C-terminal product.
As to GPGVLSEKHAGIEGR [SL11B_022414], the “Dipeptidyl? (substrate product pair cleaved by FAP as dipeptidyl exopeptidase)” value is given as “Yes”. The value for GPIMPATVSGGIEGR [SL11B_020678] was “Yes”; that for GSFHVPETHSWLVPR [SL11C_008744] was “No”; that for GSNNGQFNMVPLVPR [SL11C_037297] was “Yes”.

Values taken from doi:10.1101/2025.10.06.680748v1 (bioRxiv, 2025).
